Like-named read-outs stand apart in the source and are kept apart here.

Type in all cases: cell-based
In one assay the target is T1, rTRPV1 (Rattus norvegicus, UniProt O35433).
T1 construct: gene Trpv1
Put plainly: whole-cell voltage clamp, CHO cells expressing rTRPV1; block of odorant-evoked currents.

Another assay addresses T2, rTRPA1 (Rattus norvegicus, UniProt Q6RI86).
T2 construct: gene Trpa1
Put plainly: whole-cell voltage clamp, CHO cells expressing rTRPA1; block of odorant-evoked currents.

For a further assay, the target named is rTASK1 (K2P3, KCNK3) (Rattus norvegicus, UniProt O54912). Put plainly: two-electrode voltage clamp, Xenopus oocytes expressing rTASK1, dose-response. A general note: Two-electrode voltage clamp holds a large cell at a set potential and records current.
Sequence of rTASK1 (K2P3, KCNK3) (O54912 whole entry): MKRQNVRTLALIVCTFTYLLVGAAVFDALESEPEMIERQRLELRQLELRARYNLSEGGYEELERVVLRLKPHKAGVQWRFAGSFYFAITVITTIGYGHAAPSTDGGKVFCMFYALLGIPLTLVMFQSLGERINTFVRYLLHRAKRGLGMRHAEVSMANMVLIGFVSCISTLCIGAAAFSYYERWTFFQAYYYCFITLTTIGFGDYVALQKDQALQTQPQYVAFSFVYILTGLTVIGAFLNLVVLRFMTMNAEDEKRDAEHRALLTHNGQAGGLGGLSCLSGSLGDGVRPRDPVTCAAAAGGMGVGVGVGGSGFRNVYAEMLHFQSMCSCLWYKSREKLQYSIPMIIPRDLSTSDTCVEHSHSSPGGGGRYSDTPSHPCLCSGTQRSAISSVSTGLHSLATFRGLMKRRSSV

T2 sequence (Q6RI86 whole entry): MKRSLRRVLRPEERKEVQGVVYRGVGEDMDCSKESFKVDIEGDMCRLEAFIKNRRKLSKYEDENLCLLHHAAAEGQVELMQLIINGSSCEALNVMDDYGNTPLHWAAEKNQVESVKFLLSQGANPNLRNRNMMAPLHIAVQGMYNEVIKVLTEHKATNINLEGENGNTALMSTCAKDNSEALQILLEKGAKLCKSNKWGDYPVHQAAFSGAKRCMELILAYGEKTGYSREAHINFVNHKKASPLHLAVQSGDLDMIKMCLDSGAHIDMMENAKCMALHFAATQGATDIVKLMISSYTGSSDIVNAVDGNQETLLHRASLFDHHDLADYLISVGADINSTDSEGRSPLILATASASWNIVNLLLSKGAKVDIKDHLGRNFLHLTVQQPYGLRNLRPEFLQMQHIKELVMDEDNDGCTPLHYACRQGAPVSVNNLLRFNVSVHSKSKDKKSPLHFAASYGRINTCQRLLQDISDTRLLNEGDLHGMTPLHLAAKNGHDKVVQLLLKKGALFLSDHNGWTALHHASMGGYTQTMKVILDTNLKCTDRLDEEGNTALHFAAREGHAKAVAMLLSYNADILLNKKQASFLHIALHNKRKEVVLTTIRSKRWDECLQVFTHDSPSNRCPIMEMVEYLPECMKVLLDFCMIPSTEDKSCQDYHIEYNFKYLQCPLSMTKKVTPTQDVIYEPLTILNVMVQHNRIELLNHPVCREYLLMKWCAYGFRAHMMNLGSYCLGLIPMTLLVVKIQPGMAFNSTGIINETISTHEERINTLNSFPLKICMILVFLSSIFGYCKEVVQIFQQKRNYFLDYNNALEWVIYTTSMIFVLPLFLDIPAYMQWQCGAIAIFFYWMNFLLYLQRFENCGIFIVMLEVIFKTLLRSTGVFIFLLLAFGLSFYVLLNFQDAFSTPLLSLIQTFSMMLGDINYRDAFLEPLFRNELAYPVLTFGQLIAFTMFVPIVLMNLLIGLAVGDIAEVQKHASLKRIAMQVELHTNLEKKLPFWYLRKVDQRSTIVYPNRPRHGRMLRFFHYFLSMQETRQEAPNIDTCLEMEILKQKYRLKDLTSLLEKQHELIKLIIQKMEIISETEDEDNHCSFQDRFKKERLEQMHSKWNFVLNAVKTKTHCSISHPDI
T1 sequence (O35433 whole entry): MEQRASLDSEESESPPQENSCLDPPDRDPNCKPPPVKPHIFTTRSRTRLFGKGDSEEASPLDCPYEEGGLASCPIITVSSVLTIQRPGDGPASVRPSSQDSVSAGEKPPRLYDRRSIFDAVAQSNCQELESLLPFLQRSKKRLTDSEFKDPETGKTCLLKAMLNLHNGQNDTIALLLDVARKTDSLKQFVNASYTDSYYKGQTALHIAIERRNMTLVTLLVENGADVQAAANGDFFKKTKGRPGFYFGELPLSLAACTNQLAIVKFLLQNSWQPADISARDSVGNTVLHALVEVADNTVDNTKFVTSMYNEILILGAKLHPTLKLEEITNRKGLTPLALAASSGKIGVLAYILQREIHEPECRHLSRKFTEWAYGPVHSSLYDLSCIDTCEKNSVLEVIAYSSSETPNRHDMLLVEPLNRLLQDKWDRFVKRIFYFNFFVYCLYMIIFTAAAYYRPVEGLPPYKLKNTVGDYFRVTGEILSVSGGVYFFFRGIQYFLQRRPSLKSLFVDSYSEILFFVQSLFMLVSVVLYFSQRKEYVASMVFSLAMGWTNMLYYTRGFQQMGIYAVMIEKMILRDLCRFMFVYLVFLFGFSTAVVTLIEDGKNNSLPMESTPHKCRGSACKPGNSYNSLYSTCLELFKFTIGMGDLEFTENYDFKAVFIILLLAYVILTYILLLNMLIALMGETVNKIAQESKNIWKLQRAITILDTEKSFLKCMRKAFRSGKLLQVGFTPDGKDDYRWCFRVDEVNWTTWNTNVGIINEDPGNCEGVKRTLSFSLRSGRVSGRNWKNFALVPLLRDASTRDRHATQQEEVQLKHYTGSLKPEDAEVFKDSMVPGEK

Regarding `Oc1cc2c(cc1O)CN(C(=S)NCCc1ccc(Cl)cc1)CCC2` [CPZ, capsazepine], the “whole-cell voltage clamp, CHO cells expressing rTRPV1; block of odorant-evoked c” value on rTRPV1 is reported as “Co-administration of CPZ nearly completely inhibited all odorant-evoked outward currents”.
In the case of `CC(C)c1ccc(NC(=O)Cn2cnc3c2c(=O)n(C)c(=O)n3C)cc1` [HC, HC-030031], the “whole-cell voltage clamp, CHO cells expressing rTRPA1; block of odorant-evoked c” value on rTRPA1 was “Co-administration of HC nearly completely inhibited vanillin- and HTPA-evoked outward and inward currents”.
By IC50 is commonly meant the point on the concentration scale where inhibition reaches its midpoint. Consider `CC(C)=CCC/C(C)=C/CO` [geraniol], for which the IC50 on rTASK1 (K2P3, KCNK3) (read-out: IC50) came to 580 ± 90 µM.
For `CC(=O)CCc1ccc2c(c1)OCO2` [heliotropyl acetone], inhibition at rTASK1 (K2P3, KCNK3) was half-maximal at 890 ± 120 µM (IC50).

Source of the values: publication PMC3804614, “Transient Receptor Potential Channels Encode Volatile Chemicals Sensed by Rat Trigeminal Ganglion Neurons” (PLoS ONE, 2013).
